# Measurements: US20220168309A1 (F-STAR THERAPEUTICS, INC., priority 2019, published 2022)
# Molecular target: STING (Homo sapiens, UniProt Q86WV6)
# Experiment: STING antagonist activity, cell-based ISG54 promoter-reporter luciferase measurement of IRF activity (THP-1 dual / RAW-ISG cells)
# Settings: Antagonist Activity of Exemplary Compounds; cell line and agonist not given
# Method in brief: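 THP-1 dual or RAW-ISG cells (50,000/well) pretreated 1 h with compound (10 to 0.01 uM), then stimulated with SB 11285 (30 nM or 1 μM) or 2′3′-cGAMP (10 ug/mL or lipo mixture) for 18–20 h at 37° C. IRF-driven luciferase read by Quanti-Luc; % inhibition versus untreated or DMSO wells, IC50 by curve fit.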
# STING, sequence (Q86WV6 whole entry): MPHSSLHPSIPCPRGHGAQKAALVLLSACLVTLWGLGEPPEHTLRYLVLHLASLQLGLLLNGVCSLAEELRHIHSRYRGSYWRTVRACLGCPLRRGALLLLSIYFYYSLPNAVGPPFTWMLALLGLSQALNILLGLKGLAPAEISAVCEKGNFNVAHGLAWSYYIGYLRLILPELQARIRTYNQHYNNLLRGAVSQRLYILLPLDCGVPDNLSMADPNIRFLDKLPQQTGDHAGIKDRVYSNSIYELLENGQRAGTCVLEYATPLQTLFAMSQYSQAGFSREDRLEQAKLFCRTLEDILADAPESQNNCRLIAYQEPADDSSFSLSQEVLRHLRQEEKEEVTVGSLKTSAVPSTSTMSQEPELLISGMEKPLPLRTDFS
row,SMILES,IC50
1,"CC(=O)OCCCCCCCCn1c(C)nc2nc(Cl)nc(Cl)c21 [Compound 151, 8-(2,6-dichloro-8-methyl-7H-purin-7-yl)octyl acetate]",1 to 5 µM

# Same assay, conditions: Antagonist Activity of Exemplary Compounds; cell line and agonist not given; read-out: IC50
row,SMILES,IC50
1,"Cc1nc2nc(Cl)nc(S(=O)(=O)C(C)C)c2n1CCCCCCCCCCCCCCCC(=O)OC[C@H]1COC(C)(C)O1 [Compound 132, (R)-(2,2-dimethyl-1,3-dioxolan-4-yl)methyl 16-(2-chloro-6-(isopropylsulfonyl)-8-methyl-7H-purin-7-yl)hexadecanoate]",0.001 to 1 µM
2,"Cc1nc2nc(Cl)nc(S(=O)(=O)C(C)C)c2n1CCCCCCCCCCCCCCCC(=O)OC[C@H](O)CO [Compound 133, (R)-2,3-dihydroxypropyl 16-(2-chloro-6-(isopropylsulfonyl)-8-methyl-7H-purin-7-yl)hexadecanoate]",1 to 5 µM
3,"Cc1nc2nc(Cl)nc(S(=O)(=O)C(C)C)c2n1CCCCCCCCCCCCCCCC(=O)OC[C@@H]1COC(C)(C)O1 [Compound 134, (S)-(2,2-dimethyl-1,3-dioxolan-4-yl)methyl 16-(2-chloro-6-(isopropylsulfonyl)-8-methyl-7H-purin-7-yl)hexadecanoate]",0.001 to 1 µM
4,"Cc1nc2nc(Cl)nc(S(=O)(=O)C(C)C)c2n1CCCCCCCCCCCCCCCC(=O)OC[C@@H](O)CO [Compound 135, (S)-2,3-dihydroxypropyl 16-(2-chloro-6-(isopropylsulfonyl)-8-methyl-7H-purin-7-yl)hexadecanoate]",0.001 to 1 µM
5,"Cc1nc2nc(Cl)nc([S+]([O-])C(C)C)c2n1CCCCCCCCCCN1CCOCC1 (stereo not shown) [Compound 136, 4-(10-(2-chloro-6-(isopropylsulfinyl)-8-methyl-7H-purin-7-yl)decyl)morpholine]",0.001 to 1 µM
6,"Cc1nc2nc(Cl)nc(S(=O)(=O)C(C)C)c2n1CCCCCCCCCCN1CCOCC1 [Compound 137, 4-(10-(2-chloro-6-(isopropylsulfonyl)-8-methyl-7H-purin-7-yl)decyl)morpholine]",1 to 5 µM
7,"Cc1nc2nc(Cl)nc(S(=O)(=O)C(C)C)c2n1CCCCCCCCCCCCCCCC(=O)O [Compound 139, 16-(2-chloro-6-(isopropylsulfonyl)-8-methyl-7H-purin-7-yl)hexadecanoic acid]",0.001 to 1 µM
8,"Cc1nc2nc(Cl)nc(S(=O)(=O)C(C)C)c2n1CCCCCCCCCCCCCCCc1nnnn1C [Compound 140, 2-chloro-6-(isopropylsulfonyl)-8-methyl-7-(15-(1-methyl-1H-tetrazol-5-yl)pentadecyl)-7H-purine]",0.001 to 1 µM
9,"COC(=O)CCCCCCN(C)CCCCCCCCn1c(C)nc2nc(Cl)nc(Cl)c21 [Compound 141, Methyl 7-((8-(2,6-dichloro-8-methyl-7H-purin-7-yl)octyl)(methyl)amino)heptanoate]",0.001 to 1 µM
10,Cc1nc2nc(Cl)nc(S(=O)(=O)C(C)C)c2n1CCCCCCCCCCCCCCCCN1CCOCC1 [Compound 142],0.001 to 1 µM
11,"COC(=O)CCCCCO[C@@H]1CCN(CCCCCCn2c(C)nc3nc(Cl)nc(S(=O)(=O)C(C)C)c32)C1 [Compound 143, (3R)-1-(6-(2-chloro-6-(isopropylsulfonyl)-8-methyl-7H-purin-7-yl)hexyl)-3-((6-methoxy-6-oxohexyl)oxy)pyrrolidin-1-ium chloride]",1 to 5 µM
12,"Cc1nc2nc(Cl)nc(S(=O)(=O)C(C)C)c2n1CCCCCCCCCCCCCCCC(=O)OCCO [Compound 144, 2-hydroxyethyl 16-(2-chloro-6-(isopropylsulfonyl)-8-methyl-7H-purin-7-yl)hexadecanoate]",0.001 to 1 µM
13,"Cc1nc2nc(Cl)nc(S(=O)(=O)C(C)C)c2n1CCCCCCCCCCCCCCCC(=O)N1CCOCC1 [Compound 145, 16-(2-chloro-6-(isopropylsulfonyl)-8-methyl-7H-purin-7-yl)-1-morpholinohexadecan-1-one]",0.001 to 1 µM
14,"Cc1nc2nc(Cl)nc(S(=O)(=O)CCO)c2n1CCCCCCCCCCCCCCCC(=O)OC(C)C [Compound 146, isopropyl 16-(2-chloro-6-((2-hydroxyethyl)sulfonyl)-8-methyl-7H-purin-7-yl)hexadecanoate]",0.001 to 1 µM
15,"COC(=O)CCCCCCCCCCCCCCCn1c(C)nc2nc(Cl)nc(S(=O)(=O)CCN)c21 [Compound 147, methyl 16-(6-((2-aminoethyl)sulfonyl)-2-chloro-8-methyl-7H-purin-7-yl)hexadecanoate]",1 to 5 µM
16,"COC(=O)[C@@H](NC(=O)CCCCCCCCCCCCCCCn1c(C)nc2nc(Cl)nc(S(=O)(=O)C(C)C)c21)C(C)C [Compound 148, methyl (16-(2-chloro-6-(isopropylsulfonyl)-8-methyl-7H-purin-7-yl)hexadecanoyl)-L-valinate]",0.001 to 1 µM
17,"Cc1nc2nc(Cl)nc(S(=O)(=O)C(C)C)c2n1CCCCCCCCCCCCCCCC(N)=O [Compound 149, 16-(2-chloro-6-(isopropylsulfonyl)-8-methyl-7H-purin-7-yl)hexadecanamide]",0.001 to 1 µM
18,"Cc1nc2nc(Cl)nc(S(=O)(=O)C(C)C)c2n1CCCCCCCCCCCCCCCC(=O)N(C)C [Compound 150, 16-(2-chloro-6-(isopropylsulfonyl)-8-methyl-7H-purin-7-yl)-N,N-dimethylhexadecanamide]",0.001 to 1 µM
19,"COC(=O)CCCCCCN(C)CCCCCCCCn1c(C)nc2nc(Cl)nc(S(=O)(=O)C(C)C)c21 [Compound 152, Methyl 7-((8-(2-chloro-6-(isopropylsulfonyl)-8-methyl-7H-purin-7-yl)octyl)(methyl)-amino)heptanoate]",1 to 5 µM
20,"COC(=O)CCCN1CCN(CCCCCCn2c(C)nc3nc(Cl)nc(Cl)c32)CC1 [Compound 153, Methyl 4-(4-(6-(2,6-dichloro-8-methyl-7H-purin-7-yl)hexyl)piperazin-1-yl)butanoate]",1 to 5 µM
21,"COC(=O)CCCCCCCCCCCCCCCn1c(CN2CCOCC2)nc2nc(Cl)nc(Cl)c21 [Compound 154, methyl 16-(2,6-dichloro-8-(morpholinomethyl)-7H-purin-7-yl)hexadecanoate]",0.001 to 1 µM
22,"COC(=O)CCCCCCNCCCCCCCCn1c(C)nc2nc(Cl)nc(Cl)c21 [Compound 155, Methyl 7-((8-(2,6-dichloro-8-methyl-7H-purin-7-yl)octyl)amino)heptanoate]",0.001 to 1 µM
23,"COC(=O)CCCCCOC1CCN(CCCCCCn2c(C)nc3nc(Cl)nc(Cl)c32)CC1 [Compound 156, Methyl 6-((1-(6-(2,6-dichloro-8-methyl-7H-purin-7-yl)hexyl)piperidin-4-yl)oxy)hexanoate]",1 to 5 µM
24,"Cc1nc2nc(Cl)nc(Cl)c2n1CCCCCCCCCCCCCCCC#N [Compound 157, 16-(2,6-dichloro-8-methyl-7H-purin-7-yl)hexadecanenitrile]",0.001 to 1 µM
25,"Cc1nc2nc(Cl)nc(S(=O)(=O)C(C)C)c2n1CCCCCCCCCCCCCCCC(=O)OCC1CC1 [Compound 158, Cyclopropylmethyl 16-(2-chloro-6-(isopropylsulfonyl)-8-methyl-7H-purin-7-yl)hexadecanoate]",0.001 to 1 µM
26,"Cc1nc2nc(Cl)nc(S(=O)(=O)C(C)C)c2n1CCCCCCCCCCCCCCCC(=O)OCC(C)C [Compound 159, Isobutyl 16-(2-chloro-6-(isopropylsulfonyl)-8-methyl-7H-purin-7-yl)hexadecanoate]",1 to 5 µM
27,"[2H]C([2H])([2H])OC(=O)CCCCCCCCCCCCCCCn1c(C)nc2nc(Cl)nc(S(=O)(=O)C(C)C)c21 [Compound 160, Methyl-d3 16-(2-chloro-6-(isopropylsulfonyl)-8-methyl-7H-purin-7-yl)hexadecanoate]",0.001 to 1 µM
